Structures can show the parent of a compound that is named as a salt.
System: Male Sprague Dawley rats
Test: Rat forced swim test
Format: in vivo
Conditions: ip; rat forced swim model, intraperitoneal route, three times before re-testing; read-out: ED50 (decrease of immobility time)
Description: Antidepressant Effects of Compounds of this Invention in the Rat Forced Swim Model
The potential antidepressant effects of some examples of this invention were examined in the rat forced swim test. When rats are forced to swim in a cylinder from which no escape is possible they readily adopt a characteristic immobile posture and make no further attempts to escape except for small movements needed to keep floating. The immobility is considered to reflect a ‘depressive mood’ (Porsolt R D, LePichon M, Jalfre M (1977). Depression: a new animal model sensitive to antidepressant treatment. Nature 266, 730-732.), in which animals cease to struggle to escape the aversive situation. The immobility induced by the procedure is influenced by a wide variety of antidepressants (Porsolt R D, Lenegre A, McArthur R A (1991). Pharmacological models of depression. In: Animal models in Psychopharmacology. B. Olivier, J. Mos, J. L. Slangen (eds) Birkhauser Verlag, Basel, pp. 137-159.) and has a good predictive validity in that it detects antidepressants with different mechanisms of action. Administration of antidepressants such as fluoxetine increases the time an animal struggles (decreases the immobility time) when forced to swim in a confined space. Lack of struggling is thought to represent a state of despair.
Procedure: Male Sprague Dawley rats (Janvier) weighing 160-200 gram (n=6) were placed individually into a glass water tank (40 cm×21.5 cm) filled with tap water (25° C.) up to 18 cm. This pre-test lasted for 15 min. Twenty-four hours later, animals were re-tested for 5 min in the same water tank while the total immobility time, swimming time and climbing time were recorded. Rats were considered immobile when they made no further attempts to escape, except for movements necessary to keep their heads above water (Porsolt R D, Anton G, Blavet N & Jalfre M. (1978). Behavioural despair in rats: a new model sensitive to antidepressant treatments. European Journal of Pharmacology 47, 379-391). The absence of hind limb movements was recorded as immobility using a stopwatch by a single observer. […]

Row | Compound | ED50 [mg/kg]
1 | COc1ccc(S(=O)(=O)N2C(=O)[C@@](c3ccccc3OC)(N3C[C@H](O)C[C@H]3C(=O)N(C)C)c3cc(Cl)ccc32)c(OC)c1 [SSR149415, reference compound] | > 30
2 | COc1ccccc1C1(N2C[C@H](O)C[C@H]2C(=O)N(C)C)C(=O)N(S(=O)(=O)c2cccs2)c2ccc(Cl)cc21 (single isomer, unassigned) [Example 29] | < 30
3 | COc1ccc(S(=O)(=O)N2C(=O)C(c3cccnc3OC)(N3C[C@H](O)C[C@H]3C(=O)N(C)C)c3cc(Cl)ccc32)c(OC)c1 (single isomer, unassigned) [Example 5] | < 30

Target: T1, human V1b receptors (Homo sapiens, UniProt P47901)
T1 construct: expressed in transfected cells; host or cells: CHO-K1 (membrane preparation V1b-3H2)
T1 sequence (P47901 1-424): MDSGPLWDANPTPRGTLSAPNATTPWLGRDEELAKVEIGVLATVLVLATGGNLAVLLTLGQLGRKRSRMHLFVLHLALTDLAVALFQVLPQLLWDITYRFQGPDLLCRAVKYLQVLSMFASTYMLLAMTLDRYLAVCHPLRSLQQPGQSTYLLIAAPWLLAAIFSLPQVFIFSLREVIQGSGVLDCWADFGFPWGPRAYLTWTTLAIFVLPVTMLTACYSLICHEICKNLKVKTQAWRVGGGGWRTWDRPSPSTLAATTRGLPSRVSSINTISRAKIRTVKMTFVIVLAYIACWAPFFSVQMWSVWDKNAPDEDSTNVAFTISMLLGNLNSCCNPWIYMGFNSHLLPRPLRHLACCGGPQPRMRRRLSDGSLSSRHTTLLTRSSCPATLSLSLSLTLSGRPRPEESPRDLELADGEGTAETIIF
Test: Vasopressin V1b receptor binding assay
Conditions: membranes from CHO-K1 cells expressing human V1b receptors, displacement of 1.5 nM 3H-AVP; read-out: Binding affinity for the vasopressin V1b receptor
Procedure, shortened: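 Membranes from CHO-K1 cells stably expressing human V1b incubated with 1.5 nM ³H-AVP and test compound in 50 mM Tris, 10 mM MgCl2, 0.1% BSA, pH 7.4, 60 min at room temperature; non-specific binding with 10^−6 M AVP. Filtration and scintillation counting in triplicate; binding parameters by non-linear regression.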

Row | Compound | Ki [nM]
4 | COc1ccccc1C1(N2C[C@H](O)C[C@H]2C(=O)N(C)C)C(=O)N(S(=O)(=O)c2cccs2)c2ccc(Cl)cc21 (single isomer, unassigned) [Example 29] | < 50
5 | COc1ccc(S(=O)(=O)N2C(=O)C(c3cccnc3OC)(N3C[C@H](O)C[C@H]3C(=O)N(C)C)c3cc(Cl)ccc32)c(OC)c1 (single isomer, unassigned) [Example 5] | < 50
6 | COc1ccccc1C1(OC(=O)N2CCN(C3CCN(C)CC3)CC2)C(=O)N(S(=O)(=O)c2cccs2)c2ccc(F)cc21 (stereo not shown) [Example 136, 4-(1-Methyl-piperidin-4-yl)-piperazine-1-carboxylic acid 5-fluoro-3-(2-methoxy-phenyl)-2-oxo-1-(thiophene-2-sulfonyl)-2,3-dihydro-1H-indol-3-yl ester] | < 50
7 | COc1ccccc1C1(N2C[C@H](O)C[C@H]2C(=O)N(C)C)C(=O)N(S(=O)(=O)c2ncc(Br)cc2C)c2ccc(Cl)cc21 (single isomer, unassigned) [Example 53] | < 50
8 | COc1ccc(S(=O)(=O)N2C(=O)C(c3cccnc3OC)(N3CC[C@H]3C(=O)N(C)C)c3cc(Cl)ccc32)c(OC)c1 (single isomer, unassigned) [Example 255] | 50 to 500
9 | COc1ccc(S(=O)(=O)N2C(=O)C(OC(=O)N3CCN(C4CCN(C)CC4)CC3)(c3ccccn3)c3cc(Cl)ccc32)c(OC)c1 (stereo not shown) [Example 104, 4-(1-Methyl-piperidin-4-yl)-piperazine-1-carboxylic acid 5-chloro-1-(2,4-dimethoxy-benzenesulfonyl)-2-oxo-3-pyridin-2-yl-2,3-dihydro-1H-indol-3-yl ester trishydrochloride] | < 50
10 | COc1ccc(S(=O)(=O)N2C(=O)C(OC(=O)N3CCN(C4CCN(C)CC4)CC3)(c3cccnc3OC)c3cc(Cl)ccc32)cc1 (stereo not shown) [Example 115, 4-(1-Methyl-piperidin-4-yl)-piperazine-1-carboxylic acid 5-chloro-1-(4-methoxy-benzenesulfonyl)-3-(2-methoxy-pyridin-3-yl)-2-oxo-2,3-dihydro-1H-indol-3-yl ester diacetate] | < 50
11 | COc1ccc(S(=O)(=O)N2C(=O)C(c3ccncc3OC)(N3C[C@H](O)C[C@H]3C(=O)N(C)C)c3cc(Cl)ccc32)c(OC)c1 (single isomer, unassigned) [Example 234] | < 50
12 | COc1ccc(S(=O)(=O)N2C(=O)C(c3cnc(OC)nc3OC)(N3C[C@H](O)C[C@H]3C(=O)N(C)C)c3cc(Cl)ccc32)cc1 (single isomer, unassigned) [Example 236] | < 50
13 | COc1ccccc1C1(N2C[C@H](O)C[C@H]2C(=O)N(C)C)C(=O)N(S(=O)(=O)c2cccc(C)n2)c2ccc(Cl)cc21 (single isomer, unassigned) [Example 253] | < 50
14 | CCOc1ccccc1C1(OC(=O)N2CCN(C3CCN(C)CC3)CC2)C(=O)N(S(=O)(=O)c2ccc(C)cn2)c2ccc(Cl)cc21 (stereo not shown) [Example 145, 4-(1-Methyl-piperidin-4-yl)-piperazine-1-carboxylic acid 5-chloro-3-(2-ethoxy-phenyl)-1-(5-methyl-pyridine-2-sulfonyl)-2-oxo-2,3-dihydro-1H-indol-3-yl ester] | < 50
15 | CCOc1ccccc1C1(OC(=O)N2CCN(C3CCN(C)CC3)CC2)C(=O)N(S(=O)(=O)c2cccc3cccnc23)c2ccc(OC)cc21 (stereo not shown) [Example 154, 4-(1-Methyl-piperidin-4-yl)-piperazine-1-carboxylic acid 3-(2-ethoxy-phenyl)-5-methoxy-2-oxo-1-(quinoline-8-sulfonyl)-2,3-dihydro-1H-indol-3-yl ester] | < 50
16 | COc1ncccc1C1(OC(=O)N2CCN(C3CCN(C)CC3)CC2)C(=O)N(S(=O)(=O)c2cc(C)sc2C)c2ccc(Cl)cc21 (stereo not shown) [Example 169, 4-(1-Methyl-piperidin-4-yl)-piperazine-1-carboxylic acid 5-chloro-1-(2,5-dimethyl-thiophene-3-sulfonyl)-3-(2-methoxy-pyridin-3-yl)-2-oxo-2,3-dihydro-1H-indol-3-yl ester diacetate] | 50 to 500
17 | COc1ccc(S(=O)(=O)N2C(=O)C(c3cccnc3OC)(N3C[C@H](O)C[C@H]3C(=O)N(C)C)c3cc(Cl)ccc32)cc1 (single isomer, unassigned) [Example 240] | < 50
18 | COc1ccc(S(=O)(=O)N2C(=O)C(NC(=O)C3CCN(c4ccncc4)CC3)(c3cccnc3OC)c3cc(Cl)ccc32)c(OC)c1 (stereo not shown) [Example 82, 3,4,5,6-Tetrahydro-2H-[1,4′]bipyridinyl-4-carboxylic acid [5-chloro-1-(2,4-dimethoxy-benzenesulfonyl)-3-(2-methoxy-pyridin-3-yl)-2-oxo-2,3-dihydro-1H-indol-3-yl]-amide] | < 50
19 | COc1ccc(S(=O)(=O)N2C(=O)C(c3nccnc3OC)(N3C[C@H](O)C[C@H]3C(=O)N(C)C)c3cc(Cl)ccc32)c(OC)c1 (single isomer, unassigned) [Example 13] | < 50
